Here are results for one molecule from patent US20030022812A1, “Treating pain by targeting hyperpolarization-activated, cyclic nucleotide-gated channels” (priority 2001, published 2003).

The experiment deals with T1, human HCN1 (Homo sapiens, UniProt O60741).
T1 construct: expressed in transfected cells; host or cells: Xenopus laevis oocytes injected with cRNA transcribed from pGEMHE-human HCN1
T1 sequence (O60741 1-890): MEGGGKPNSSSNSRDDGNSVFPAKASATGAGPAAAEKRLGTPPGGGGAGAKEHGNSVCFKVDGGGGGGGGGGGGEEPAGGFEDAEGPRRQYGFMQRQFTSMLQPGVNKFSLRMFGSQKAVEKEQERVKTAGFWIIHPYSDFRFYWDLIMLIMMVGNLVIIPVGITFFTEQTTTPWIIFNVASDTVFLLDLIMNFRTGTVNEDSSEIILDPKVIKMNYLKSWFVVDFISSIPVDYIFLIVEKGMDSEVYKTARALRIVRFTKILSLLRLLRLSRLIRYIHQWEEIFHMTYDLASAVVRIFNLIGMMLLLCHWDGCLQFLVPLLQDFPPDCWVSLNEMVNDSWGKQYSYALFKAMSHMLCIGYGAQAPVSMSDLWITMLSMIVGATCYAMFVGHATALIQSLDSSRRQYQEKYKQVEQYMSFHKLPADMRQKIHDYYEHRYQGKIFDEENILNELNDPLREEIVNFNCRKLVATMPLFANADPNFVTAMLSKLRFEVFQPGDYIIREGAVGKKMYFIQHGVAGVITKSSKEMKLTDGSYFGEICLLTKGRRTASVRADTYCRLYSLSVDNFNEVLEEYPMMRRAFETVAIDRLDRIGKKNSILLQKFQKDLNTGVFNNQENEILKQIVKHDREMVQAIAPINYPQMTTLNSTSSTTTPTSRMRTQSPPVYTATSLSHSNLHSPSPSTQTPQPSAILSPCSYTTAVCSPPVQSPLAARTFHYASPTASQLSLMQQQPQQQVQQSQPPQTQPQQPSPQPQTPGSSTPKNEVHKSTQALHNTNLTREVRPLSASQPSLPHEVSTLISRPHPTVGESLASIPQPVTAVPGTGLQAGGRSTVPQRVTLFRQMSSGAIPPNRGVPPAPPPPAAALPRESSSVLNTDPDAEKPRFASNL
As to the kind of experiment: Two-electrode voltage clamp of Xenopus oocytes injected with human HCN1 cRNA. It counts as cell-based. The note with it: Cs+ 3 mM; for block of HCN1 currents: n=3. The protocol: Xenopus laevis oocytes were prepared and injected using standard methods previously described and known in the art [Fraser et al. (1993). Electrophysiology: a practical approach. D. I. Wallis, IRL Press at Oxford University Press, Oxford: 65-86]. Ovarian lobes from adult female Xenopus laevis (Nasco, Fort Atkinson, Wis.) were teased apart, rinsed several times in nominally Ca-free saline containing: 82.5 mM NaCl, 2.5 mM KCl, 1 mM MgCl2, 5 mM HEPES, adjusted to pH 7.0 with NaOH (OR-2), and gently shaken in OR-2 containing 0.2% collagenase Type 1 (ICN Biomedicals, Aurora, Ohio) for 2-5 hours. When approximately 50% of the follicular layers were removed, Stage V and VI oocytes were selected and rinsed in media consisting of 75% OR-2 and 25% ND-96. The ND-96 contained: 100 mM NaCl, 2 mM KCl, 1 mM MgCl2, 1.8 mM CaCl2, 5 mM HEPES, 2.5 mM Na pyruvate, gentamicin (50 ug/ml), adjusted to pH 7.0 with NaOH. […] For in vitro transcription, PGEM HE (Liman et al., (1992) Neuron 9: 861-71) containing human HCN1 was linearized with NheI and transcribed with T7 RNA polymerase (Promega) in the presence of the cap analog m7G(5′)ppp(5′)G. The synthesized cRNA was precipitated with ammonium acetate and isopropanol, and resuspended in 50 μl nuclease-free water. cRNA was quantified using formaldehyde gels (1% agarose, 1×MOPS, 3% formaldehyde) against 1,2 and 5 μl RNA markers (Gibco BRL, 0.24-9.5 Kb).
Oocytes were injected with 50 nl of human HCN1 RNA (1-10 ng). Control oocytes were injected with 50 nl of water. Oocytes were incubated for 2 days in ND-96 before analysis for expression of human HCN1. Incubations and collagenase digestion were carried out at room temperature. Injected oocytes were maintained in 48 well cell culture clusters (Costar; Cambridge, Mass.) at 18° C. Whole cell voltage-activated currents were measured 2 days after injection with a conventional two-electrode voltage clamp (GeneClamp500, Axon Instruments, Foster City, Calif.) using standard methods previously described and known in the art (Dascal et al., (1987) Pflugers Arch 409: 512-20). The microelectrodes, which had resistances of ˜1 MΩ, were filled with 3 M KCl. Cells were continuously perfused with ND96 at ˜10 ml/min at room temperature. Membrane voltage was clamped at −30 mV unless indicated.
Oocytes were challenged with a series of hyperpolarizing voltage steps from a holding potential of −30 mV. Voltage steps (800 msec duration) to −40 through −180 mV in 20 mV intervals were applied to oocytes at a sampling rate of […]. Hyperpolarizing voltage steps activated an inward current having a threshold of about −60 mV. […] Cs^+ blocked HCN1 currents by 94, 92 and 90% when Ih was evoked by stepping to −80, −100 and −120 mV, respectively. […]
Background: Two-electrode voltage clamp holds a large cell at a set potential and records current.

As to `[Cl-].[Cs+]` [Cs^+, CsCl], the “effect on endogenous oocyte inward currents” value is “no effect”. Under “Ih evoked by stepping to −80 mV”, the “block of HCN1 currents” value is recorded as 94%. In addition, the “block of HCN1 currents” value (Ih evoked by stepping to −100 mV) amounted to 92%. Also, for the setting “Ih evoked by stepping to −120 mV”, the “block of HCN1 currents” value is given as 90%.
